From patent US20140018558A1, “DOCOSAHEXAENOIC ACID (DHA) AS POLYUNSATURATED FREE FATTY ACID IN ITS DIRECTLY COMPRESSIBLE POWDER FORM AND METHOD OF ISOLATION THEREOF” (priority 2011, published 2014)

Legend:
[1] = Stability of DHA powder at room temperature; type: physicochemical; conditions: powder form, no antioxidants added
[2] = Solubility of the isolated DHA powder (physical characterisation); type: physicochemical; conditions: solvent chloroform; isolated DHA free fatty acid powder
Method: Take 1 liter of fish oil. Maintain temperature to 40-45° C. To it add 1-2% methanolic/ethanolic/propanolic/butanolic sodium or potassium hydroxide 1 liter. Stir for ½ an hour. It separates two layers, discard upper layer which contains lower fatty acids and other impurities. Then, to the lower layer add 750 ml of acetone or ethyl or methyl ketone and stir for one hr and keep aside for ½ hour to precipitate DHA. Filter it and wash 2-3 times with equal quantity of acetone. Evaporate and recover the solvent with temperature not exceeding 40 degree C. This leads to drying of the precipitated DHA at room temperature to form the crystalline mass. The same is passed through the sieve to obtain a dry, directly compressible, free flowing powder of polyunsaturated free fatty acid DHA thereof. The DHA is creamish or off-white crystalline solid powder having melting point 60-62 degree C.
Cool fish oil 12 degree C. to solidify all fatty acids in waxy form and separate it from fish oil. Maintain temperature to 40-45° C. In 1 kg waxy fatty acid, add 1 litre ethanolic or methanolic or propanolic or butanolic sodium or potassium hydroxide 1-2% and stir it for ½ an hour. The solution separates the oily layer which contains lower fatty acids and other impurities then, add ethyl acetate:acetone 90:10 to 10:90 to above solvent. It precipitates DHA in solid form. […]

Stability [1]: stable at room temperature | Solubility [2]: freely soluble in chloroform
Structure (SMILES): CC/C=C\C/C=C\C/C=C\C/C=C\C/C=C\C/C=C\CCC(=O)O [DHA, Docosahexaenoic acid]
